Patent publication US8022091B2, “Triazole derivative” (Taisho Pharmaceutical Co., Ltd., priority 2006, dated 2011)

Columns and labels:
[1] = biological target: T1, human Edg-1 (S1P1) (Homo sapiens, UniProt P21453); assay: S1P1 binding assay: inhibition of [33P]-S1P binding to membrane fraction of HEK-293 cells transferred with the human Edg-1 (S1P1) gene; conditions: for IC50: [33P]-S1P 0.1 nM, human Edg-1 (S1P1) HEK-293 membrane fraction, 1 h at 30° C., read-out: IC50 (concentration at which binding in the absence of the test compound was inhibited by 50%); for inhibition at 10 µM: test compound at 10 μM, inhibition of [33P]-S1P binding to the membrane fraction of HEK-293 cells expressing human Edg-1 (S1P1)
T1 construct: expressed in transfected cells; host or cells: HEK-293
T1 sequence (P21453 whole entry): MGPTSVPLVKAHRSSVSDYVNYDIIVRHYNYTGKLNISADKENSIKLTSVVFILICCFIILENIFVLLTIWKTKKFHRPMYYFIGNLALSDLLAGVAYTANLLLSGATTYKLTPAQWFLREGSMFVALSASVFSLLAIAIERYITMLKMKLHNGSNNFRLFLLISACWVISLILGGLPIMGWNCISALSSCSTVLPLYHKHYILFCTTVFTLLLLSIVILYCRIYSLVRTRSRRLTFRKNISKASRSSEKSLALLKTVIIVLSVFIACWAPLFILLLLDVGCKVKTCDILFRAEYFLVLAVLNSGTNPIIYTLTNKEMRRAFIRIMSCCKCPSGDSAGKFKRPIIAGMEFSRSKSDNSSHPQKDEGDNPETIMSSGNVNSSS
Summary of the method: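 Membranes from S1P1-transfected HEK-293 cells incubated 1 h at 30° C in pH 7.4 Tris buffer with fatty acid-free BSA, 0.1 nM [33P]-S1P and test compound (0.1% DMSO). Filter-bound radioactivity was counted; inhibition corrected for binding to untransfected-cell membranes, and IC50 derived from concentration series.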

Row | Structure (SMILES) | melting point [°C] | IC50 [1] [µM] | inhibition at 10 µM [1] [%]
1 | CCn1c(Oc2cc(C(C)C)n(C)n2)nnc1[C@@H](C)NS(=O)(=O)c1ccc(Cl)c(Cl)c1 [Compound 99] | 103 to 105.5 | 0.025 | 102
2 | CCn1c(Oc2cccc(NS(=O)(=O)N(C)C)c2)nnc1[C@@H](C)NS(=O)(=O)c1ccc(Cl)c(Cl)c1 [Compound 101] | 142 to 143 | ≤ 0.035 | 101
3 | CCn1c(Oc2cccc(NS(C)(=O)=O)c2)nnc1[C@@H](C)NS(=O)(=O)c1ccc(Cl)c(Cl)c1 [Compound 102, 3,4-Dichloro-N-[(R)-1-[4-ethyl-5-(3-methanesulfonylamino-phenoxy)-4H-[1,2,4]triazol-3-yl]-ethyl]-benzenesulfonamide] | 117 to 118 | ≤ 0.035 | 104
4 | CCn1c(Oc2ccc(F)cc2)nnc1[C@@H](C)NS(=O)(=O)c1ccc(F)c(Cl)c1 [Compound 103] | 146.5 to 147.5 | – | 91.2
5 | CCn1c(Oc2ccc(F)cc2)nnc1[C@@H](C)NS(=O)(=O)c1ccc(Br)c(Br)c1 [Compound 104] | 187 to 187.5 | – | 95.2
6 | CCn1c(Oc2cccc(N(C)CCN(C)C)c2)nnc1[C@@H](C)NS(=O)(=O)c1ccc(Cl)c(Cl)c1 [Compound 105] | 121 to 123 | 0.0029 | 104
7 | CCn1c(Oc2cccc(OCCN(C)C)c2)nnc1[C@@H](C)NS(=O)(=O)c1ccc(Cl)c(Cl)c1 [Compound 106] | 132 to 134 | – | 110
8 | CCn1c(Oc2cccc(N(C(C)C)C(C)C)c2)nnc1[C@@H](C)NS(=O)(=O)c1ccc(Cl)c(Cl)c1 [Compound 107] | 159 to 162 | ≤ 0.01 | 104
9 | CCn1c(Oc2cccc(C3CCN(C(C)C)CC3)c2)nnc1[C@@H](C)NS(=O)(=O)c1ccc(Cl)c(Cl)c1 [Compound 108] | 175 to 180 | 0.018 | 101
10 | CCn1c(Oc2cccc(N3CCN(C)CC3)c2)nnc1[C@@H](C)NS(=O)(=O)c1ccc(F)c(Cl)c1 [Compound 109] | 152 to 153 | ≤ 0.035 | 104
11 | CCn1c(Oc2ccc(F)cc2)nnc1[C@@H](C)NS(=O)(=O)c1ccc(Br)c(C)c1 [Compound 110] | 187.5 to 188.5 | – | 104
12 | CCn1c(Oc2cccc(N3CCN(C)CC3)c2)nnc1[C@@H](C)NS(=O)(=O)c1ccc(Br)c(C)c1 [Compound 111] | 204 to 205 | ≤ 0.01 | 109
13 | CCn1c(Oc2cccc(N3CCN(C)CC3)c2)nnc1[C@@H](C)NS(=O)(=O)c1ccc(Br)c(Br)c1 [Compound 112] | 171 to 173 | ≤ 0.01 | 99.2
14 | CCn1c(Oc2cccc(C(=O)O)c2)nnc1[C@@H](C)NS(=O)(=O)c1ccc(Cl)c(Cl)c1 [Compound 113, 3-[5-[(R)-1-(3,4-Dichlorobenzenesulfonylamino)-ethyl]-4-ethyl-4H-[1,2,4]triazol-3-yloxy]-benzoic acid] | 183 to 185 | – | 74.2
15 | CCn1c(Oc2cccc(O)c2)nnc1[C@@H](C)NS(=O)(=O)c1ccc(Cl)c(Cl)c1 [Compound 114, 3,4-Dichloro-N-[(R)-1-[4-ethyl-5-(3-hydroxyphenoxy)-4H-[1,2,4]triazol-3-yl]-ethyl]-benzenesulfonamide] | 185 to 186 | – | 94.5
16 | CCn1c(Nc2ccc(F)cc2)nnc1[C@@H](C)NS(=O)(=O)c1ccc(Cl)c(Cl)c1 [Compound 116] | 192 to 195 | – | 83.1
17 | CCOc1ccc2c(Oc3nnc([C@@H](C)NS(=O)(=O)c4ccc(Cl)c(Cl)c4)n3CC)csc2c1 [Compound 117] | 153.5 to 155.5 | – | 87.1
18 | CCn1c(Oc2cccc(N3CCN(C)CC3)c2)nnc1[C@@H](C)NS(=O)(=O)c1ccc2c(Cl)cccc2c1 [Compound 120] | 211.5 to 216.5 | 0.0017 | 93
19 | CCn1c(Oc2cccc(N3CCN(C)CC3)c2)nnc1[C@@H](C)NS(=O)(=O)c1ccc2ccccc2c1 [Compound 121] | 195.5 to 198.5 | ≤ 0.01 | 103
20 | CCn1c(Oc2ccc(F)cc2)nnc1[C@@H](C)NS(=O)(=O)c1ccc2ccccc2c1 [Compound 122] | 167 to 170 | ≤ 0.035 | 81.9
21 | C[C@@H](NS(=O)(=O)c1ccc(Cl)c(Cl)c1)c1nnc(Oc2cccc(N3CCN(C)CC3)c2)n1C1CC1 [Compound 123] | 162 to 165 | ≤ 0.035 | 97.1
22 | C[C@@H](NS(=O)(=O)c1ccc(Cl)c(Cl)c1)c1nnc(Oc2ccc(F)cc2)n1C1CC1 [Compound 124] | 178.5 to 180 | – | 97.4

Row | Structure (SMILES) | melting point [°C] | IC50 [1] [µM] | inhibition at 10 µM [1] [%]
23 | C[C@@H](NS(=O)(=O)c1ccc(Cl)c(Cl)c1)c1nnc(Oc2ccc3cc[nH]c3c2)n1C1CC1 [Compound 125] | 253.5 to 254.5 | ≤ 0.035 | 94.3
24 | CCn1c(Oc2ccc(F)cc2)nnc1[C@@H](C)NS(=O)(=O)c1ccc(C)c(C)c1 [Compound 126] | 176.5 to 178 | – | 91.8
25 | CCn1c(Oc2ccc(F)cc2)nnc1[C@@H](C)NS(=O)(=O)c1ccc(C(F)(F)F)cc1 [Compound 128] | 182.5 to 183.5 | – | 90.7
26 | CCn1c(Oc2ccc3cc[nH]c3c2)nnc1[C@@H](C)NS(=O)(=O)c1ccc(C)c(C)c1 [Compound 129] | 96 to 104 | 0.02 | 96.8
27 | CCn1c(Oc2ccc3cc[nH]c3c2)nnc1[C@@H](C)NS(=O)(=O)c1ccc2ccccc2c1 [Compound 130] | 107 to 114 | 0.0029 | 98.9
28 | CCn1c(Oc2ccc3cc[nH]c3c2)nnc1[C@@H](C)NS(=O)(=O)c1cc(C)c(Cl)cc1Cl [Compound 131] | 102 to 110.5 | ≤ 0.035 | 97.3
29 | CCn1c(Oc2ccc3cc[nH]c3c2)nnc1[C@@H](C)NS(=O)(=O)c1ccc(C)c(Cl)c1 [Compound 132] | 95 to 104 | ≤ 0.01 | 99.5
30 | CCn1c(Oc2cccc(N3CCN(C)CC3)c2)nnc1[C@@H](C)NS(=O)(=O)c1ccc(C)c(Cl)c1 [Compound 133] | 164 to 169.5 | ≤ 0.01 | 101
31 | CCn1c(Oc2ccc3cc[nH]c3c2)nnc1[C@@H](C)NS(=O)(=O)c1ccc(Cl)c(Cl)c1Cl [Compound 134] | 108.5 to 114.5 | ≤ 0.035 | 101
32 | CCn1c(Oc2ccc3cc[nH]c3c2)nnc1[C@@H](C)NS(=O)(=O)c1cccc(C(F)(F)F)c1 [Compound 135] | 188.5 to 192 | – | 101
33 | CCn1c(Oc2ccc3cc[nH]c3c2)nnc1[C@@H](C)NS(=O)(=O)c1ccc(C(F)(F)F)cc1 [Compound 136] | 100 to 106 | 0.0081 | 96.5
34 | CCn1c(Oc2ccc(F)cc2)nnc1[C@@H](C)NS(=O)(=O)c1ccc2c(Cl)cccc2c1 [Compound 137] | 173.5 to 177 | ≤ 0.01 | 102
35 | CCn1c(Oc2ccc(OC)cc2)nnc1[C@@H](C)NS(=O)(=O)c1ccc2c(Cl)cccc2c1 [Compound 138] | 167.5 to 169 | ≤ 0.01 | 99.6
36 | CCn1c(Oc2ccc(Cl)cc2)nnc1[C@@H](C)NS(=O)(=O)c1ccc2c(Cl)cccc2c1 [Compound 139] | 174 to 177 | ≤ 0.01 | 101
37 | CCn1c(Oc2ccc(OC)cc2)nnc1[C@@H](C)NS(=O)(=O)c1ccc2ccccc2c1 [Compound 140] | 110 to 119 | ≤ 0.01 | 102
38 | CCn1c(Oc2ccc(Cl)cc2)nnc1[C@@H](C)NS(=O)(=O)c1ccc2ccccc2c1 [Compound 141] | 169 to 173 | ≤ 0.035 | 105
39 | CCn1c(Oc2cccc(N3CCN(C)CC3)c2)nnc1[C@@H](C)NS(=O)(=O)c1ccc(C(F)(F)F)cc1 [Compound 142] | 183 to 184 | ≤ 0.035 | 98.1
40 | CCn1c(Oc2cccc(N3CCN(C)CC3)c2)nnc1[C@@H](C)NS(=O)(=O)c1ccc(Cl)c(Cl)c1Cl [Compound 143] | 144 to 145 | 0.0073 | 99.9
41 | CCn1c(Oc2cccc(N3CCN(C)CC3)c2)nnc1[C@@H](C)NS(=O)(=O)c1cc2ccccc2s1 [Compound 144] | 187 to 188 | 0.0079 | 99.4
42 | CCn1c(Oc2cccc(N3CCN(C)CC3)c2)nnc1[C@@H](C)NS(=O)(=O)c1cc(F)cc(Cl)c1C [Compound 145] | 150 to 152 | ≤ 0.035 | 101
43 | CCn1c(Oc2cccc(N3CCN(C)CC3)c2)nnc1[C@@H](C)NS(=O)(=O)/C=C/c1ccccc1 [Compound 146] | 121 to 122 | 0.012 | 102
44 | CCn1c(Oc2cccc(NS(C)(=O)=O)c2)nnc1[C@@H](C)NS(=O)(=O)c1ccc2ccccc2c1 [Compound 147] | 141 to 143 | ≤ 0.01 | 103
